Experimental data reported in patent publication EP3964497A1, “SUBSTITUTED VICINAL DIAMINE COMPOUNDS AND THEIR USE IN THE TREATMENT, AMELIORATION OR PREVENTION OF PAIN” (priority 2020, dated 2022).
Read-outs that look alike come from different tables or passages of the source.

Experiments:
[1] = biological target: T1, δOR (Homo sapiens, UniProt P41143); assay: competitive radioligand binding with [3H]diprenorphine, membranes of transfected HEK 293T cells
T1 construct: expressed in transfected cells; host or cells: HEK 293T cells, transient transfection, membrane preparation
Experimental: (§1) To verify the subtype selectivity of the described compounds for µOR over δOP and κOR, respectively, the binding affinities of the described examples to the different human opioid receptors in an in-vitro test system were measured.
(§2) For the determination of receptor binding affinity competitive radioligand binding experiments were performed as described in literature (H. Huebner, C. Haubmann, W. Utz, P. Gmeiner, J. Med. Chem., 2000, 43, 756-762). In brief, HEK 293T cells were transiently transfected with the cDNAs coding for the human opioid receptor subtypes µOR, δOR, and kOR, respectively, using a solution of polyethylenimine in PBS (PEI, linear, 25 kDa, Polysciences) as transfection reagent at a 3:1 PEI to cDNA ratio (I. Fish, A. Stoessel, K. Eitel, C. Valant, S. Albold, H. Huebner, D. Moeller, M.J. Clark, R.K. Sunahara, A. Christopoulos, B.K. Shoichet, P. Gmeiner, J. Med. Chem., 2017, 60, 9239-9250). After preparation of membranes, radioligand displacement assays were run in 96-well format at a final volume of 200 µL in binding buffer (50 mM Tris-HCI, 1 mM EDTA, 5 mM MgCl2, 100 µg/mL bacitracin, 5 µg/mL soybean trypsin inhibitor, pH 7.4) with the radioligand [^3H]diprenorphine (specific activity = 31 Ci/mmol) at a final concentration of 0.20-0.30 nM. […] Unspecific binding was determined in the presence of 10 µM of the naloxone. Protein concentrations were determined employing the method of Lowry with bovine serum albumin as standard (O.H. Lowry, N.J. Rosebrough, A.L. Farr, R.J. Randall, J. Biol. Chem., 1951, 193, 265-275). The resulting competition curves of the receptor binding experiments were analyzed by nonlinear regression. The data were initially fit using a sigmoid model to provide IC50 values, which were subsequently transformed to Ki values according to the equation of Cheng and Prusoff (Y.-C. Cheng, W. H. Prusoff, Biochem. Pharmacol., 1973, 22, 3099-3108). Three to seven experiments per compound were performed, with each concentration in triplicate.

[2] = biological target: T2, κOR (Homo sapiens, UniProt P41145); assay: as above
T2 construct: expressed in transfected cells; host or cells: HEK 293T cells, transient transfection, membrane preparation
Experimental: as §1
After preparation of membranes, radioligand displacement assays were run in 96-well format at a final volume of 200 µL in binding buffer (50 mM Tris-HCI, 1 mM EDTA, 5 mM MgCl2, 100 µg/mL bacitracin, 5 µg/mL soybean trypsin inhibitor, pH 7.4) with the radioligand [^3H]diprenorphine (specific activity = 31 Ci/mmol) at a final concentration of 0.20-0.30 nM. […] Unspecific binding was determined in the presence of 10 µM of the naloxone. […] The resulting competition curves of the receptor binding experiments were analyzed by nonlinear regression. […] Three to seven experiments per compound were performed, with each concentration in triplicate.

[3] = biological target: T3, µOR (Homo sapiens, UniProt P35372); assay: G-protein mediated signaling, IP1 accumulation assay (HTRF) in HEK-293T cells with hybrid G-protein Gαqi; assay type: cell-based; parameters: expressed in transfected cells; host or cells: HEK-293T cells, transient transfection; conditions: for Emax: HEK-293T, read-out: G-protein signaling Emax
Experimental: (§3) Functionally selective drugs, which are biased towards Gi protein activation over β-arrestin signaling at the µOR are indicated to show an improved side effect profile. Thus, the characterization of the functional properties of the described examples at the µOR were performed by determination of the ligand stimulated G-protein related signaling and β-arrestin recruitment applying cell based in-vitro test systems. Full and partial agonists as well as antagonists for G protein related signaling were identified.
The determination of G-protein stimulated µOR activation was measured applying an IP1 accumulation assay as described previously (J. Kruell, S.K. Fehler, L. Hofmann, N. Nebel, S. Maschauer, O. Prante, P. Gmeiner, H. Lanig, H. Huebner, M.R. Heinrich. ChemMedChem 2020, 15, 1175-1186. C. Gentzsch, K. Seier, A. Drakopoulos, M.-L. Jobin, Y. Lanoiselee, Z. Koszegi, D. Maurel, R. Sounier, H. Huebner, P. Gmeiner, S. Granier, D. Calebiro, M. Decker. Ang. Chem. Int. Ed. 2020, 59, 2-9). In brief, HEK-293T cells were grown to confluence of approximately 70% and transiently transfected with the cDNA of the human µOR receptor and the hybrid G-protein Gαqi. After one day cells were seeded into 384-well microplates. For testing cells were incubated with test compounds (final range of concentration from 1 pM up to 10 µM) for 180 min at 37 °C followed by addition of detection reagents. Time resolved fluorescence resonance energy transfer (HTRF) was determined using a microplate reader. Each compound was tested in duplicates in 3-9 individual experiments in comparison to the reference compound DAMGO. The resulting dose response curves were analyzed by nonlinear regression using the algorithms in PRISM 6.0 (GraphPad software, San Diego, CA), fitted with a sigmoid model and normalized to basal activity (0 %) and the maximal effect caused by the reference full agonist DAMGO (100 %).
(§4) In the above table, the numbers indicate mean EC50 values in nM and Emax values relative to the full effect of reference agonist DAMGO [=100%], respectively and are derived from 3-9 individual experiments for G-protein signaling and 3-8 tests for arrestin recruitment. ND = not determined.

[4] = biological target: T3, µOR; assay: competitive radioligand binding with [3H]diprenorphine, membranes of transfected HEK 293T cells; parameters: expressed in transfected cells; host or cells: HEK 293T cells, transient transfection, membrane preparation
Experimental: as §1, §2

[5] = biological target: T3, µOR; assay: β-arrestin-2 recruitment, enzyme-fragment complementation assay in HEK-293 cells; assay type: cell-based; parameters: expressed in transfected cells; host or cells: HEK-293 cells stably expressing EA-tagged β-arrestin-2, transiently transfected with µOR-PK1; conditions: for Emax: HEK293, relative to the full effect of reference agonist DAMGO [=100%]; for β-arrestin recruitment EC50: mean of 3-8 tests, 90 min incubation, CBA = could not be analyzed (no dose-response curve)
Experimental: as §3
Measurement of β-arrestin-2 recruitment was done applying an enzyme-fragment complementation assay as described previously (C. Gentzsch, K. Seier, A. Drakopoulos, M.-L. Jobin, Y. Lanoiselee, Z. Koszegi, D. Maurel, R. Sounier, H. Huebner, P. Gmeiner, S. Granier, D. Calebiro, M. Decker. Ang. Chem. Int. Ed. 2020, 59, 2-9. J. Hellmann, M. Drabek, J. Yin, J. Gunera, T. Proell, F. Kraus, C.J. Langmead, H. Huebner, D. Weikert, P. Kolb, D.M. Rosenbaum, P. Gmeiner. PNAS 2020, 117, 18059-18067). In brief, HEK-293 cells stably expressing the enzyme acceptor (EA) tagged β-arrestin-2 fusion protein were transiently co-transfected with the ProLink tagged µOR-PK1 After 24 h cells were transferred into 384-well microplates and cultured for further 24 h. To start arrestin recruitment compounds were added to the cells to get a final concentration in a range of 10 pM to 100 µM. After incubation for 90 min reaction was stopped by addition of detection mix. Chemiluminescence was determined in duplicates (3-8 individual experiments for each compound in comparison to the reference agonist DAMGO). Data analysis was done as described above.
as §4

[6] = radioligand [3H]diprenorphine, number in brackets = number of experiments, read-out: mean Ki value κOR
[7] = mean of 3-9 experiments, 180 min at 37 °C, CBA = could not be analyzed (no dose-response curve)
[8] = radioligand [3H]diprenorphine, number in brackets = number of experiments, read-out: mean Ki value δOR

Compound | Ki [1] | Ki [2, 6] | EC50 [3] | Emax [3] | Ki [4] | Emax [5] | β-arrestin recruitment EC50 [5] | binding to δOR (in words) ([1]; statement in text referring to the radioligand binding table) | Ki [2] | G-protein signaling EC50 [3, 7] | EC50 ([3]; mean of 3-9 experiments, 180 min at 37 °C, CBA = could not be analyzed (no dose-response curve), read-out: G-protein signaling EC50) | Ki [1, 8]
C/C(=C\c1ccccc1)C(=O)NC[C@H](Cc1ccc(O)cc1)N(C)C [Example 4, (S,E)-N-(2-(Dimethylamino)-3-(4-hydroxyphenyl)propyl)-2-methyl-3-phenylacrylamide] | 49 nM | 110 nM | 17 nM | 62% | 46 nM | < 5% | CBA |  |  |  |  | 
CN(C)[C@H](CNC(=O)C=Cc1ccccc1)Cc1ccc(O)cc1 (stereo in doubt) [Example 1, (S)-N-(2-(Dimethylamino)-3-(4-hydroxyphenyl)propyl)cinnamamide] | 25 nM | 120 nM | 7 nM | 63% | 13 nM | < 5% | CBA | high affinity |  |  |  | 
CN[C@H](CNC(=O)/C=C/c1cccc(C(F)(F)F)c1)Cc1c(C)cc(O)cc1C [Example 12, (S,E)-N-(3-(4-Hydroxy-2,6-dimethylphenyl)-2-(methylamino)propyl)-3-(3-(trifluoromethyl)phenyl)acrylamide formiate] | 310 nM |  |  | < 5% | 12 nM |  |  |  | 310 nM | CBA |  | 
NC(=O)c1ccc(C[C@H](N)CNC(=O)/C=C/c2cccc(C(F)(F)F)c2)cc1 [Example 14, (S,E)-4-(2-Amino-3-(3-(3-(trifluoromethyl)phenyl)acrylamido)propyl)benzamide formiate] | 2900 nM |  |  | 75% | 460 nM | < 5% | CBA |  | 5600 nM |  | 2200 nM | 
CN(C)[C@H](CNC(=O)C#Cc1ccccc1)Cc1ccc(O)cc1 [Example 2, (S)-N-(2-(Dimethylamino)-3-(4-hydroxyphenyl)propyl)-3-phenylpropiolamide] |  | 230 nM | 22 nM | 42% | 18 nM | < 5% | CBA |  |  |  |  | 140 nM
Cc1cc(O)cc(C)c1C[C@H](N)CNC(=O)/C=C/c1cccc(C(F)(F)F)c1 [Example 11, (S,E)-N-(2-Amino-3-(4-hydroxy-2,6-dimethylphenyl)propyl)-3-(3-(trifluoromethyl)phenyl)acrylamide formiate] | 360 nM |  |  | < 5% | 19 nM |  |  |  | 220 nM | CBA |  | 
Cc1cccc(/C=C/C(=O)NC[C@H](Cc2ccc(O)cc2)N(C)C)c1 [Example 13, (S,E)-N-(2-(Dimethylamino)-3-(4-hydroxyphenyl)propyl)-3-(m-tolyl)acrylamide] |  | 500 nM | 41 nM | 78% | 26 nM |  |  |  |  |  |  | 300 nM
CN(C)[C@H](COC(=O)C=Cc1ccccc1)Cc1ccc(O)cc1 (stereo in doubt) [Comparative Example 2, (S)-2-(Dimethylamino)-3-(4-hydroxyphenyl)propyl cinnamate, reference compound] | 860 nM |  |  |  | 230 nM |  |  |  | 320 nM |  |  | 
CN(C)[C@H](CNC(=O)/C=C/c1ccc(F)c(C(F)(F)F)c1)Cc1ccc(O)cc1 [Example 16, (S,E)-N-(2-(Dimethylamino)-3-(4-hydroxyphenyl)propyl)-3-(4-fluoro-3-(trifluoromethyl)phenyl)acrylamide formiate] | 250 nM |  | 40 nM | 102% | 23 nM |  |  |  | 600 nM |  |  | 
CN(C)[C@H](CNC(=O)/C=C/c1cccc2ccccc12)Cc1ccc(O)cc1 [Example 6, (S,E)-N-(2-(Dimethylamino)-3-(4-hydroxyphenyl)propyl)-3-(naphthalen-1-yl)acrylamide] |  |  | 20 nM |  |  | < 5% | CBA |  | 180 nM |  |  | 
CN(C)[C@H](COC(=O)NCCc1ccsc1)Cc1ccc(O)cc1 [Comparative Example 1, (S)-2-(Dimethylamino)-3-(4-hydroxyphenyl)propyl (2-(thiophen-3-yl)ethyl)carbamate formiate, reference compound] | 3000 nM |  |  |  | 2400 nM |  |  |  | 3300 nM |  |  | 
CN(C)[C@](C)(CNC(=O)C=Cc1ccccc1)Cc1ccc(O)cc1 (stereo in doubt) [Example 5, (S)-N-(2-(Dimethylamino)-3-(4-hydroxyphenyl)-2-methylpropyl)cinnamamide] | 1300 nM |  |  |  | 310 nM |  |  |  | 970 nM |  |  | 
CN(C)[C@H](CNC(=O)/N=N/c1ccccc1)Cc1ccc(O)cc1 [Comparative Example 3, (S,E)-N-(2-(Dimethylamino)-3-(4-hydroxyphenyl)propyl)-2-phenyldiazene-1-carboxamide formiate, reference compound] | 630 nM |  |  |  | 66 nM |  |  |  | 540 nM |  |  | 
